Test results from patent publication EP2987533B1, “7-substituted piperazin-1-yl fluoroquinolone compounds, their use in the treatment of cancer, pharmaceutical compositions and a method for preparation” (priority 2014, dated 2016).

Legend:
CCRF-CEM = test: NCI one-dose SRB growth assay; type: cell-based; conditions: Homo sapiens; CCRF-CEM (Leukemia), 10^-5 M, 48 h; read-out: % Growth Inhibition (GI %)
Method: (§1) A primary anticancer assay was performed for an approximately 60 human tumor cell line panel derived from nine neoplastic diseases, in accordance with the protocol of the Drug Evaluation Branch, National Cancer Institute, Bethesda, MD (Monks A. et al., J. Natl. Cancer Inst 1991, 83, 757-766; Boyd M.R. and Paull K.D., Drug. Dev. Res. 1995, 34, 91-109; Shoemaker R.H., Nat. Rev. Cancer 2006, 6, 813-823). Briefly, tested compounds were added to the culture at a single concentration (10^-5M), and the cultures were incubated for 48 h. End point determinations were made with a protein binding dye, sulforhodamine B (SRB). The results for each tested compound were reported as the growth percentage of the treated cells when compared to that of the untreated control cells. The percentage growth was evaluated spectrophotometrically versus controls not treated with test agents.

DU-145 = test: NCI one-dose SRB growth assay; type: cell-based; conditions: Homo sapiens; DU-145 (Prostate Cancer), 10^-5 M, 48 h; read-out: % Growth Inhibition (GI %)
Method: as §1

HCC-2998 = test: NCI one-dose SRB growth assay; type: cell-based; conditions: Homo sapiens; HCC-2998 (Colon Cancer), 10^-5 M, 48 h; read-out: % Growth Inhibition (GI %)
Method: as §1

HT29 = test: NCI one-dose SRB growth assay; type: cell-based; conditions: Homo sapiens, HT-29; HT29 (Colon Cancer), 10^-5 M, 48 h; read-out: % Growth Inhibition (GI %)
Method: as §1

MDA-MB-231/ATCC = test: NCI one-dose SRB growth assay; type: cell-based; conditions: Homo sapiens; MDA-MB- 231/ATCC (Breast Cancer), 10^-5 M, 48 h; read-out: % Growth Inhibition (GI %)
Method: as §1

MOLT-4 = test: NCI one-dose SRB growth assay; type: cell-based; conditions: Homo sapiens; MOLT-4 (Leukemia), 10^-5 M, 48 h; read-out: % Growth Inhibition (GI %)
Method: as §1

NCI-H322M = test: NCI one-dose SRB growth assay; type: cell-based; conditions: Homo sapiens; NCI-H322M (Non-Small Cell Lung Cancer), 10^-5 M, 48 h; read-out: % Growth Inhibition (GI %)
Method: as §1

NCI/ADR-RES = test: NCI one-dose SRB growth assay; type: cell-based; conditions: Homo sapiens; NCI/ADR-RES (Ovarian Cancer), 10^-5 M, 48 h; read-out: % Growth Inhibition (GI %)
Method: as §1

OVCAR-3 = test: NCI one-dose SRB growth assay; type: cell-based; conditions: Homo sapiens; OVCAR-3 (Ovarian Cancer), 10^-5 M, 48 h; read-out: % Growth Inhibition (GI %)
Method: as §1

OVCAR-4 = test: NCI one-dose SRB growth assay; type: cell-based; conditions: Homo sapiens; OVCAR-4 (Ovarian Cancer), 10^-5 M, 48 h; read-out: % Growth Inhibition (GI %)
Method: as §1

SF-268 = test: NCI one-dose SRB growth assay; type: cell-based; conditions: Homo sapiens; SF-268 (CNS Cancer), 10^-5 M, 48 h; read-out: % Growth Inhibition (GI %)
Method: as §1

SK-MEL-5 = test: NCI one-dose SRB growth assay; type: cell-based; conditions: Homo sapiens; SK-MEL-5 (Melanoma), 10^-5 M, 48 h; read-out: % Growth Inhibition (GI %)
Method: as §1

SN12C = test: NCI one-dose SRB growth assay; type: cell-based; conditions: Homo sapiens; SN12C (Renal Cancer), 10^-5 M, 48 h; read-out: % Growth Inhibition (GI %)
Method: as §1

TK-10 = test: NCI one-dose SRB growth assay; type: cell-based; conditions: Homo sapiens; TK-10 (Renal Cancer), 10^-5 M, 48 h; read-out: % Growth Inhibition (GI %)
Method: as §1

UO-31 = test: NCI one-dose SRB growth assay; type: cell-based; conditions: Homo sapiens; UO-31 (Renal Cancer), 10^-5 M, 48 h; read-out: % Growth Inhibition (GI %)
Method: as §1

[1] = tested on: full panel of about 60 human tumor cell lines; test: NCI five-dose SRB assay, full panel mean; conditions: 48 h
leukemia = test: NCI five-dose SRB assay, subpanel average; conditions: 48 h
NSC lung cancer = test: NCI five-dose SRB assay, subpanel average; conditions: 48 h
colon cancer = test: NCI five-dose SRB assay, subpanel average; conditions: 48 h
CNS cancer = test: NCI five-dose SRB assay, subpanel average; conditions: 48 h
melanoma = test: NCI five-dose SRB assay, subpanel average; conditions: 48 h
ovarian cancer = test: NCI five-dose SRB assay, subpanel average; conditions: 48 h
renal cancer = test: NCI five-dose SRB assay, subpanel average; conditions: 48 h
[2] = tested on: 60 human tumor cell line panel; test: NCI 60 cell line one-dose SRB primary anticancer assay; type: cell-based; conditions: 60 cell lines assay in one dose, 10µM (title; head prints 10.0 mM), 48 h
Method: as §1

OVCAR-8 = test: NCI one-dose SRB growth assay; type: cell-based; conditions: Homo sapiens; OVCAR-8 (Ovarian Cancer), 10^-5 M, 48 h; read-out: % Growth Inhibition (GI %)
Method: as §1

SK-MEL-28 = test: NCI one-dose SRB growth assay; type: cell-based; conditions: Homo sapiens; SK-MEL-28 (Melanoma), 10^-5 M, 48 h; read-out: % Growth Inhibition (GI %)
Method: as §1

[3] = Homo sapiens, read-out: GI50 (median growth inhibitory)
[4] = Homo sapiens, read-out: LC50 (median lethal)

`O=c1[nH]cc(F)c(=O)[nH]1` [Compound 5-FU, 5-fluorouracil, reference compound] showed an inhibition at 10 µM (CCRF-CEM) of 57.1%, an inhibition at 10 µM (DU-145) of 35.5% and an inhibition at 10 µM (HCC-2998) greater than 100%. The inhibition at 10 µM (HT29) was 27.1%, the inhibition at 10 µM (MDA-MB-231/ATCC) was 78.1% and the inhibition at 10 µM (MOLT-4) was 43.1%. For the same compound, the inhibition at 10 µM (NCI-H322M) was 59.5%, the inhibition at 10 µM (NCI/ADR-RES) was 47.6% and the inhibition at 10 µM (OVCAR-3) was 47.4%. For the same compound, the inhibition at 10 µM (OVCAR-4) was 59.4%, the inhibition at 10 µM (SF-268) was 59% and the inhibition at 10 µM (SK-MEL-5) was 33.7%. For the same compound, the inhibition at 10 µM (SN12C) was 54%, the inhibition at 10 µM (TK-10) was 66.9% and the inhibition at 10 µM (UO-31) was 41.3%. The GI50 ([1]; Homo sapiens, read-out: GI50 MG-MID (Full panel mean-graph midpoint)) was 22.6 µM, the CC50 ([1]; Homo sapiens, read-out: LC50 MG-MID (Full panel mean-graph midpoint)) was greater than 100 µM and the “TGI MG-MID (Full panel mean-graph midpoint)” value ([1]; full panel, five concentrations) was “c (Compounds showed values > 100µM)”. The GI50 (leukemia; [3]) was 15.1 µM, the CC50 (leukemia; [4]) was greater than 100 µM and the “TGI (total growth inhibitory)” value (leukemia; average over leukemia subpanel, five concentrations) was “c (Compounds showed values > 100µM)”. The GI50 (NSC lung cancer; [3]) was greater than 100 µM, the CC50 (NSC lung cancer; [4]) was greater than 100 µM and the “TGI (total growth inhibitory)” value (NSC lung cancer; average over NSC lung cancer subpanel, five concentrations) was “c (Compounds showed values > 100µM)”. The GI50 (colon cancer; [3]) was 8.4 µM, the CC50 (colon cancer; [4]) was greater than 100 µM and the “TGI (total growth inhibitory)” value (colon cancer; average over colon cancer subpanel, five concentrations) was “c (Compounds showed values > 100µM)”. For the same compound, the GI50 (CNS cancer; [3]) was 72.1 µM, the CC50 (CNS cancer; [4]) was greater than 100 µM and the “TGI (total growth inhibitory)” value (CNS cancer; average over CNS cancer subpanel, five concentrations) was “c (Compounds showed values > 100µM)”. For the same compound, the GI50 (melanoma; [3]) was 70.6 µM, the CC50 (melanoma; [4]) was greater than 100 µM and the “TGI (total growth inhibitory)” value (melanoma; average over melanoma subpanel, five concentrations) was “c (Compounds showed values > 100µM)”. The GI50 (ovarian cancer; [3]) was 61.4 µM, the CC50 (ovarian cancer; [4]) was greater than 100 µM and the “TGI (total growth inhibitory)” value (ovarian cancer; average over ovarian cancer subpanel, five concentrations) was “c (Compounds showed values > 100µM)”. The GI50 (renal cancer; [3]) was 45.6 µM, the CC50 (renal cancer; [4]) was greater than 100 µM and the “TGI (total growth inhibitory)” value (renal cancer; average over renal cancer subpanel, five concentrations) was “c (Compounds showed values > 100µM)”.
For `CCn1cc(C(=O)O)c(=O)c2cc(F)c(N3CCN(S(=O)(=O)c4c(C)cc(C)cc4C)CC3)cc21` [Compound 6a], the “PCE (Positive cytotoxic effect: ratio between number of cell lines with percentage growth inhibition from 10 to >100 and total number of cell lines)” value [2] was 46/58, the “RGI % (Range of growth inhibition percentage)” value [2] was 66.90 to 10.12% and the inhibition at 10 µM ([2]; Homo sapiens, read-out: MGI % (Mean growth inhibition percentage)) was 18.3%. The inhibition at 10 µM (CCRF-CEM) was 18.2%, the inhibition at 10 µM (DU-145) was less than 10% and the inhibition at 10 µM (HCC-2998) was 17.5%. The inhibition at 10 µM (HT29) was less than 10%, the inhibition at 10 µM (MDA-MB-231/ATCC) was 16.3% and the inhibition at 10 µM (MOLT-4) was 24.1%. For the same compound, the inhibition at 10 µM (NCI-H322M) was 16.5%, the inhibition at 10 µM (NCI/ADR-RES) was 15.2% and the inhibition at 10 µM (OVCAR-3) was 10.8%. The inhibition at 10 µM (OVCAR-4) was less than 10%, the inhibition at 10 µM (OVCAR-8) was 18.5% and the inhibition at 10 µM (SF-268) was 16.3%. The inhibition at 10 µM (SK-MEL-28) was less than 10%, the inhibition at 10 µM (SK-MEL-5) was 20.5% and the inhibition at 10 µM (SN12C) was 11.5%. For the same compound, the inhibition at 10 µM (TK-10) was less than 10% and the inhibition at 10 µM (UO-31) was 66.9%.
